These are literature values, as cited in US20230226068A1, “METHOD, SYSTEM, FORMULATION AND KIT FOR THE TREATMENT OF ONYCHOMYCOSIS” (priority 2021, published 2023).

Read-outs that look alike come from different tables or passages of the source.

For the series the following is noted: for side effects: po.

In the case of `CCC(C)(C)c1ccc(CC(C)CN2C[C@@H](C)O[C@@H](C)C2)cc1` (stereo partly shown) [Amorolfine], the safety profile result (in vivo) is on record as “local skin irritations”. As to `Cc1cc(C2CCCCC2)n(O)c(=O)c1` [Ciclopirox], where the note is “in vivo”, the safety profile result is given as “local skin irritations”.

`C=C1CCN([C@H](C)[C@](O)(Cn2cncn2)c2ccc(F)cc2F)CC1` [Efinaconazole]: where the note is “in vivo”, the safety profile result was “local skin irritations”. For `OC(Cn1cncn1)(Cn1cncn1)c1ccc(F)cc1F` [Fluconazole], the side effects entry (in vivo) is recorded as “liver enzyme abnormalities, headaches, as well as gastrointestinal problems or rashes”. For the compound `CCC(C)n1ncn(-c2ccc(N3CCN(c4ccc(OCC5COC(Cn6cncn6)(c6ccc(Cl)cc6Cl)O5)cc4)CC3)cc2)c1=O` (stereo not shown) [Itraconazole], the side effects result (in vivo) is on record as “liver enzyme abnormalities, headaches, as well as gastrointestinal problems or rashes”.

For the compound `OB1OCc2cc(F)ccc21` [Tavaborole], the safety profile entry (topical treatment) was “local skin irritations”. As to `CN(C/C=C/C#CC(C)(C)C)Cc1cccc2ccccc12` [Terbinafine], the side effects result (in vivo) is “liver enzyme abnormalities, headaches, as well as gastrointestinal problems or rashes”.
